From ChEMBL document CHEMBL4190345, “Synthesis and biological evaluation of new substituted thioglycolurils, their analogues and derivatives” (Eur J Med Chem, 2017) come the findings set out here.

The IC50 is the concentration at which inhibition is half-maximal.

One test concerns Fusarium oxysporum. In words: Fungicidal activity against Fusarium oxysporum grown under potato-saccharose agar assessed as inhibition of mycelial radial growth at 30 mg/l incubated for 72 hrs. It counts as functional. As to conditions: read-out: GI; call rule not given here.
A further test has as its system Fusarium verticillioides. In words: Fungicidal activity against Fusarium moniliforme grown under potato-saccharose agar assessed as inhibition of mycelial radial growth at 30 mg/l incubated for 72 hrs. Format: functional. The conditions noted are these: read-out: GI.
The subject of the next test is Venturia inaequalis. In words: Fungicidal activity against Venturia inaequalis grown under potato-saccharose agar assessed as inhibition of mycelial radial growth at 30 mg/l incubated for 72 hrs. It counts as functional. The conditions noted are these: read-out: GI.
Another test has as its system Sclerotinia sclerotiorum. The test is described as follows: Fungicidal activity against Sclerotinia sclerotiorum grown under potato-saccharose agar assessed as inhibition of mycelial radial growth at 30 mg/l incubated for 72 hrs. Format: functional. As to conditions: read-out: GI.
The test system of the next test is Rhizoctonia solani. In words: Fungicidal activity against Rhizoctonia solani grown under potato-saccharose agar assessed as inhibition of mycelial radial growth at 30 mg/l incubated for 72 hrs. It counts as functional. The conditions noted are these: read-out: GI.
The subject of a further test is Bipolaris sorokiniana. The test is described as follows: Fungicidal activity against Bipolaris sorokiniana grown under potato-saccharose agar assessed as inhibition of mycelial radial growth at 30 mg/l incubated for 72 hrs. It counts as functional. The conditions noted are these: read-out: GI.
Test [1] in a line: Cytotoxicity in human […] cells assessed as inhibition of cell growth incubated for 72 hrs by MTT assay. It counts as functional, cell-based.
The next test relates to RD. In words: Cytotoxicity in human RD cells assessed as inhibition of cell growth incubated for 72 hrs by MTT assay. It counts as functional, cell-based.
The test system of the next test is A549. In words: Cytotoxicity in human A549 cells assessed as inhibition of cell growth incubated for 72 hrs by MTT assay. It counts as functional, cell-based. As to conditions: A549, 72 h.
The next test has as its system MCF7. In words: Cytotoxicity in human MCF7 cells assessed as inhibition of cell growth incubated for 72 hrs by MTT assay. It counts as functional, cell-based. The conditions noted are these: MCF7, 72 h. (In general: Formazan colour is commonly taken as a measure of viable cells.)
Another test concerns HEK293. The test is described as follows: Cytotoxicity in human HEK293 cells assessed as inhibition of cell growth incubated for 72 hrs by MTT assay. Format: cell-based.
The mark [2] stands for this setting: Homo sapiens, HEK293, 72 h, read-out: IC50.

Each structure is given as a SMILES string. Some results are limits rather than exact numbers.

`CSC1=NC2C(N(C)C(=O)N2C)N1/N=C/C=C/c1ccccc1` (stereo unspecified): the inhibition of growth at 30 µg/mL in the test with Fusarium oxysporum was 71%; in the test with Fusarium verticillioides, 73%; in the test on Venturia inaequalis it was 9%; in the test on Sclerotinia sclerotiorum it was 17%; in the test with Rhizoctonia solani, 45%; in the test on Bipolaris sorokiniana, 50%.
`COc1ccccc1/C=C/C=N/N1C(SC)=NC2C1N(C)C(=O)N2C` (stereo unspecified): the inhibition of growth at 30 µg/mL in the test on Fusarium oxysporum is 20%; in the test on Fusarium verticillioides, 14%; with Venturia inaequalis it was 13%; in the test on Sclerotinia sclerotiorum, 13%; in the test with Rhizoctonia solani, 56%; in the test with Bipolaris sorokiniana, 33%.
Consider `CC(/C=N/N1C(=S)NC2C1N(C)C(=O)N2C)=C\c1ccccc1` (stereo unspecified), for which the inhibition of growth at 30 µg/mL in the test on Fusarium oxysporum is 29%; with Fusarium verticillioides, 20%; in the test with Venturia inaequalis it was 28%; with Sclerotinia sclerotiorum, 11%; in the test on Rhizoctonia solani it was 82%; in the test on Bipolaris sorokiniana, 9%. Besides, the IC50 in [1] was 75.9 µM; in the test on RD, 84 µM; in the test with A549, 49.4 µM; with MCF7, greater than 100 µM.
Consider `CCN1C(=O)N(CC)C2C1NC(=O)N2/N=C/C=C/c1ccccc1[N+](=O)[O-]` (stereo unspecified), for which the IC50 in test [1] was 9.63 µM; in the test on RD, 1.93 µM; with HEK293 (setting [2]) it was 42.9 µM; with A549, greater than 100 µM; with MCF7 it was 88 µM.
In the case of `CSC1=NC2C(N(C)C(=O)N2c2ccccc2)N1/N=C/C=C/c1ccccc1` (stereo unspecified), the inhibition of growth at 30 µg/mL with Fusarium oxysporum turned out to be 25%; in the test with Fusarium verticillioides, 16%; with Venturia inaequalis, 24%; in the test with Sclerotinia sclerotiorum, 0%; in the test with Rhizoctonia solani, 32%; with Bipolaris sorokiniana, 56%.
Consider `CN1C(=O)N(C)C2C1NC(=O)N2/N=C/C=C/c1ccccc1` (stereo unspecified), for which the inhibition of growth at 30 µg/mL is 6% in the test on Fusarium oxysporum; 9% in the test with Fusarium verticillioides; 18% in the test on Venturia inaequalis; 12% in the test on Sclerotinia sclerotiorum; 92% in the test with Rhizoctonia solani; 5% in the test on Bipolaris sorokiniana.
With `CCN1C(=O)N(CC)C2C1NC(=S)N2/N=C/C=C/c1ccc(OC)cc1` (stereo unspecified), the inhibition of growth at 30 µg/mL in the test with Fusarium oxysporum turned out to be 18%; with Fusarium verticillioides, 23%; in the test with Venturia inaequalis, 14%; in the test with Sclerotinia sclerotiorum, 0%; with Rhizoctonia solani it was 26%; in the test with Bipolaris sorokiniana it was 19%. For the same molecule, the IC50 in [1] was 17.4 µM; in the test with RD, 87 µM; with A549, 17.2 µM; in the test with MCF7, 36.6 µM.
On to `CSC1=NC2C(N(C)C(=O)N2C)N1/N=C/C=C/c1ccco1` (stereo unspecified), for which the inhibition of growth at 30 µg/mL with Fusarium oxysporum was determined as 34%; in the test on Fusarium verticillioides it was 51%; in the test with Venturia inaequalis it was 19%; in the test with Sclerotinia sclerotiorum, 11%; in the test on Rhizoctonia solani, 27%; in the test with Bipolaris sorokiniana it was 34%.
Regarding `CCN1C(=O)N(CC)C2C1NC(=O)N2/N=C/C=C/c1ccccc1` (stereo unspecified), the IC50 in test [1] is 18.3 µM; in the test with RD it was 2.02 µM; in the test on HEK293 (hek293), “Not Active”; in the test on A549, 44.3 µM; in the test with MCF7, 83.2 µM.
With `CCN1C(=O)N(CC)C2C1NC(=S)N2/N=C/C=C/c1ccccc1[N+](=O)[O-]` (stereo unspecified), the IC50 in [1] is 7.71 µM; in the test on RD, 15.2 µM; with HEK293 (setting [2]) it was 19.3 µM; with A549, greater than 100 µM; in the test with MCF7 it was 43.9 µM.
As for `CCSC1=NC2C(N(CC)C(=O)N2CC)N1/N=C/C=C/c1ccccc1` (stereo unspecified), the inhibition of growth at 30 µg/mL was 61% in the test with Fusarium oxysporum; 63% in the test on Fusarium verticillioides; 30% with Venturia inaequalis; 29% in the test with Sclerotinia sclerotiorum; 67% in the test with Rhizoctonia solani; 77% in the test on Bipolaris sorokiniana.
As to `CCSC1=NC2C(N(C)C(=O)N2C)N1/N=C/C=C/c1ccccc1` (stereo unspecified), the inhibition of growth at 30 µg/mL with Fusarium oxysporum came to 70%; in the test with Fusarium verticillioides, 71%; in the test on Venturia inaequalis it was 28%; in the test on Sclerotinia sclerotiorum, 32%; in the test with Rhizoctonia solani, 80%; in the test with Bipolaris sorokiniana, 48%.
In the case of `CCN1C(=O)N(CC)C2C1NC(=S)N2/N=C/C(C)=C/c1ccccc1` (stereo unspecified), the inhibition of growth at 30 µg/mL was 23% in the test with Fusarium oxysporum; 41% with Fusarium verticillioides; 25% with Venturia inaequalis; 5% with Sclerotinia sclerotiorum; 34% in the test with Rhizoctonia solani; 7% in the test with Bipolaris sorokiniana. The IC50 in [1] is 26.6 µM; in the test on RD it was 20 µM; in the test with A549, greater than 100 µM; in the test on MCF7, 35.1 µM.
Regarding `COc1ccc(/C=C/C=N/N2C(=S)NC3C2N(C)C(=O)N3C)cc1` (stereo unspecified), the IC50 in test [1] was 99.1 µM; in the test with RD, greater than 100 µM; in the test on A549, greater than 100 µM; in the test on MCF7 it was greater than 100 µM.
On to `CSC1=NC2C(N(C)C(=O)N2c2ccccc2)N1/N=C/C=C/c1ccccc1[N+](=O)[O-]` (stereo unspecified), for which the inhibition of growth at 30 µg/mL in the test on Fusarium oxysporum came out at 10%; in the test on Fusarium verticillioides, 9%; with Venturia inaequalis it was 16%; with Sclerotinia sclerotiorum it was 17%; in the test with Rhizoctonia solani, 12%; in the test on Bipolaris sorokiniana, 37%.
Take `CSC1=NC2C(N(C)C(=O)N2C)N1/N=C/C=C/c1ccccc1[N+](=O)[O-]` (stereo unspecified): the inhibition of growth at 30 µg/mL came out at 20% with Fusarium oxysporum; 19% in the test on Fusarium verticillioides; 10% in the test on Venturia inaequalis; 13% in the test on Sclerotinia sclerotiorum; 49% in the test on Rhizoctonia solani; 36% in the test with Bipolaris sorokiniana. Further, the IC50 (in test [1]; in the test with RD; in the test on A549; in the test with MCF7) was greater than 100 µM each time.
Turning to `CCN1C(=O)N(CC)C2C1N=C(SC)N2/N=C/C=C/c1ccccc1[N+](=O)[O-]` (stereo unspecified), the IC50 in test [1] was 65.6 µM; with RD, 41.9 µM; with A549, greater than 100 µM; in the test on MCF7 it was 66.7 µM.
As for `CCN1C(=O)N(CC)C2C1N=C(SC)N2/N=C/C=C/c1ccc(OC)cc1` (stereo unspecified), the inhibition of growth at 30 µg/mL with Fusarium oxysporum is 32%; in the test with Fusarium verticillioides, 32%; in the test on Venturia inaequalis, 13%; in the test with Sclerotinia sclerotiorum, 12%; in the test with Rhizoctonia solani it was 76%; with Bipolaris sorokiniana, 64%.
Turning to `CN1C(=O)N(C)C2C1N=C(SCc1ccc(Cl)cc1)N2/N=C/C=C/c1ccco1` (stereo unspecified), the inhibition of growth at 30 µg/mL is 33% in the test on Fusarium oxysporum; 42% in the test on Fusarium verticillioides; 10% in the test with Venturia inaequalis; 19% in the test with Sclerotinia sclerotiorum; 42% with Rhizoctonia solani; 40% with Bipolaris sorokiniana.
As for `CCN1C(=O)N(CC)C2C1N=C(SCc1ccc(Cl)cc1)N2/N=C/C=C/c1ccccc1OC` (stereo unspecified), the inhibition of growth at 30 µg/mL in the test on Fusarium oxysporum stood at 8%; with Fusarium verticillioides, 13%; in the test with Venturia inaequalis it was 21%; in the test on Sclerotinia sclerotiorum, 14%; in the test with Rhizoctonia solani it was 19%; in the test with Bipolaris sorokiniana it was 36%.
As for `CC(C)(C)C(=O)C(Oc1ccc(Cl)cc1)n1cncn1` (stereo unspecified) [TRIADIMEFON], the inhibition of growth at 30 µg/mL was found to be 64% in the test with Fusarium oxysporum; 61% with Fusarium verticillioides; 60% in the test on Venturia inaequalis; 61% in the test on Sclerotinia sclerotiorum; 52% with Rhizoctonia solani; 76% in the test with Bipolaris sorokiniana.
With `COc1ccc(/C=C/C=N/N2C(SC)=NC3C2N(C)C(=O)N3C)cc1` (stereo unspecified), the inhibition of growth at 30 µg/mL came to 24% in the test on Fusarium oxysporum; 36% with Fusarium verticillioides; 13% with Venturia inaequalis; 19% in the test on Sclerotinia sclerotiorum; 74% in the test on Rhizoctonia solani; 50% in the test with Bipolaris sorokiniana.
Consider `CN1C(=O)N(C)C2C1NC(=S)N2/N=C/C=C/c1ccccc1` (stereo unspecified), for which the IC50 in [1] is 43 µM; in the test with RD, 46 µM; in the test with A549 it was 45.6 µM; in the test on MCF7 it was greater than 100 µM.
Regarding `COc1cccc2c1C(=O)c1c(O)c3c(c(O)c1C2=O)C[C@@](O)(C(=O)CO)C[C@@H]3O[C@H]1C[C@H](N)[C@H](O)[C@H](C)O1` [DOXORUBICIN], the IC50 in [1] was 0.19 µM; in the test with RD, 0.53 µM; with HEK293 (setting [2]), 2.1 µM; in the test with A549, 0.53 µM; in the test on MCF7 it was 0.56 µM.
`CCN1C(=O)N(c2ccccc2)C2NC(=S)N(/N=C/C=C/c3ccccc3)C21` (stereo unspecified): the IC50 was 1.46 µM in [1]; 0.47 µM in the test on RD; 2.17 µM with HEK293 (setting [2]); greater than 100 µM with A549; 2.25 µM in the test with MCF7.
For the molecule `CN1C(=O)N(C)C2C1N=C(SCc1ccc(Cl)cc1)N2/N=C/C=C/c1ccccc1` (stereo unspecified), the inhibition of growth at 30 µg/mL was 46% with Fusarium oxysporum; 57% with Fusarium verticillioides; 18% with Venturia inaequalis; 17% in the test with Sclerotinia sclerotiorum; 28% in the test with Rhizoctonia solani; 49% with Bipolaris sorokiniana.
